Experiments:
TNF-α = test: ELISA of TNF-α production in LPS-stimulated THP-1 cells; assay type: cell-based, human; conditions: for Effect on TNF-α level: 10 µM, compared to LPS (+)-stimulated group, THP-1 cells; for IC50: Homo sapiens, THP-1, 18 h, LPS-stimulated (10 ng/mL) THP-1 cells, 1, 5, 10, 20 µM, 18 h, read-out: TNF-α IC50; for TNF-α SI (selectivity index, CC50/IC50): THP-1 CC50 / TNF-α IC50
IL-1β = test: ELISA of IL-1β production in LPS-stimulated THP-1 cells; assay type: cell-based, human; conditions: 10 µM, compared to LPS (+)-stimulated group
Protocol: The logarithmic growth phase of THP-1 cells was achieved by seeding in 96-well plates at a density of 5 × 10^4 cells/well and differentiated for 24 h in the presence of PMA (0.5 μM solution in medium). After 24 h of incubation, the culture medium was removed from the 96-well plate and the cells were washed with PBS. Fresh RPMI-1640 medium supplemented with 0.1% FBS and 1% Penicillin–Streptomycin was added to each well and incubated at 37 °C overnight. The cells were pretreated with 17 limonoids at the corresponding concentration for 1 h, followed by the addition of LPS (10 ng/mL) and then incubation at 37 °C for 18 h. Finally, 50 μL of each culture supernatant solution was taken to determine the concentrations of IL-6, MCP-1, and IL-1β using the corresponding commercially available human ELISA kits following the manufacturer’s instructions. The analyte concentration in the supernatant was measured in pg/mL, and the inhibition level was expressed as a fold change compared to the LPS (−) control group. To determine the IC50 value, the dose-response data were normalized to the LPS-stimulated-only group, and the percentage of inhibition was calculated using the following formula: % Inhibition=(Absorbance of LPS+ control−Absorbance of compound treatment with LPS)/(Absorbance of LPS+ control−Absorbance of LPS− control)×100
Furthermore, the % inhibition data were interpolated into linear equations to determine the IC50 values.

in vitro = assay type: cell-based; conditions: mouse
IL-6 = test: ELISA of IL-6 production in LPS-stimulated THP-1 cells; assay type: cell-based, human; conditions: for Effect on IL-6 level: 10 µM, compared to LPS (+)-stimulated group, THP-1 cells; for IC50: Homo sapiens, THP-1, 18 h, LPS-stimulated (10 ng/mL) THP-1 cells, 1, 5, 10, 20 µM, 18 h
[1] = system: TLR4-dependent NF-kB activation in HEK-Blue hTLR4 cells; test: SEAP reporter gene assay, antagonist effect on LPS-stimulated TLR4-dependent NF-κB activation; assay type: cell-based, human; conditions: 20 µM, LPS 10 ng/mL, 18 h, vs. LPS stimulated-only group
Protocol: The SEAP Reporter Gene Assay was conducted as previously described. HEK-Blue^TM hTLR4 cells (2 × 10^4 cells/well) were seeded in 96-well plates and were serum-starved for 24 h at 37 °C in a 5% carbon dioxide atmosphere. After incubation, the culture medium was aspirated, and the cells were washed with saline. High-glucose D-MEM supplemented with 0.1% FBS and 1% penicillin-streptomycin was added and treated with or without the 17 limonoids at a concentration of 20 µM for 1 h, followed by LPS addition at a concentration of 10 ng/mL for the LPS-stimulated group. After incubation at 37 °C for 18 h, the supernatants were collected and PNPP in PBS solution (0.8 mM, 100 μL) was added, followed by 4 h of shading at 25 °C. The optical density (OD) of the samples was measured at 405 nm using a microplate reader (BioTek Cytation 5 Cell Imaging Multimode Reader, Agilent Technologies, Santa Clara, CA, USA).

Structure (SMILES): CC(=O)O[C@H]1[C@@H](O)[C@@]2(C)C3=CC[C@@H](c4ccoc4)[C@]3(C)CC[C@@H]2[C@@]2(C)C=CC(=O)C(C)(C)[C@H]12 [Compound 3, 6α-O-acetyl-7-deacetylnimocinol]
- Effect on TNF-α level (TNF-α): significantly reduced
- IC50 (TNF-α): 9.18 µM
- TNF-α SI (selectivity index, CC50/IC50) (TNF-α): 2.21
- Effect on IL-1β level (IL-1β): significantly reduced
- viability at 5 µM (in vitro): 90.3 ± 5.24%
- viability at 10 µM (in vitro): 91.4 ± 8.26%
- viability at 20 µM (in vitro): 70.2 ± 2.29%
- Effect on IL-6 level (IL-6): significantly reduced
- IC50 (IL-6): 3.06 µM
- IL-6 SI (selectivity index, CC50/IC50) (IL-6; THP-1 CC50 / IL-6 IC50): 6.63
- Inhibition of SEAP release (NF-κB activity inhibition) [1]: significantly inhibited SEAP release

Structure (SMILES): CC(=O)O[C@H]1[C@@H](OC(C)=O)[C@@]2(C)C3=CC[C@@H](c4ccoc4)[C@]3(C)CC[C@@H]2[C@@]2(C)C=CC(=O)C(C)(C)[C@H]12 [Compound 5, dysobinin]
- Effect on TNF-α level (TNF-α): significantly reduced
- IC50 (TNF-α): 5.76 µM
- TNF-α SI (selectivity index, CC50/IC50) (TNF-α): 2.53
- Effect on IL-1β level (IL-1β): significantly reduced
- viability at 5 µM (in vitro): 83.6 ± 8.91%
- viability at 10 µM (in vitro): 84.29 ± 0.28%
- viability at 20 µM (in vitro): 3.19 ± 1.24%
- Effect on IL-6 level (IL-6): significantly reduced
- IC50 (IL-6): 1.64 ± 0.97 µM
- Inhibition of SEAP release (NF-κB activity inhibition) [1]: significantly inhibited SEAP release

Reference: article PMC10814725, “In Vitro Anti-Inflammatory Study of Limonoids Isolated from Chisocheton Plants” (Current Issues in Molecular Biology, 2024)
